The test system of assay [1] is Aβ-treated mice. Further details: method as in PMID 27498773. The following applies: Aβ-treated mice model; cited from earlier work.
Assay [2] concerns APP/PS1 transgenic mice. On the set-up: method as in PMID 26476132. The following applies: cited from earlier work.
The target of assay [3] is T1, AChE (Rattus norvegicus, UniProt P37136).
T1 construct: AChE was derived from the SD rat brains by homogenizing the brain with 20-fold saline solution; from tissue; host or cells: SD rat brain homogenate (supernatant after 800 x g)
Description: AChE kinetic study (Lineweaver-Burk and Dixon plots). The format is biochemical. The settings on record: for Ki: Dixon plot, inhibitor 0.1, 0.3, 1 μM, substrate 1.25-20 mM, n = 3; for type of inhibition of AChE: Lineweaver-Burk plot. Here is the method:
(§1) To have an insight into how structure modification affected the inhibitory activities, molecular docking and kinetics studies were performed for DL0410, compounds 6-1 and 7-6. After the docking parameters were set, the crystal poses of donepezil and N-((1-benzylpiperidin-3-yl)methyl)-N-(2-methoxyethyl) naphthalene-2-sulfonamide were first re-docked into the binding site pocket of AChE and BuChE, respectively. Donepezil is a mixed-type inhibitor of AChE used in the palliative treatment of AD [25]. N-((1-benzylpiperidin-3-yl)methyl)-N-(2-methoxyethyl) naphthalene-2-sulfonamide is a potent, selective, and reversible human BuChE inhibitor, which can improve memory, cognitive functions, and learning abilities. The root mean square deviation (RMSD) values between the docking and initial poses were 0.872 and 1.253, respectively, which implied that the docking models built by CDOCKER could reproduce the crystal binding model and were suitable for the AChE and BuChE system. DL0410 and two highly inhibitory compounds (compounds 6-1 and 7-6) were docked to the active pockets of AChE and BuChE. For AChE, these three compounds could dock to TRP86 of CAS via π-Alkyl interaction or electrostatic attraction, near the bottom of the active site gorge, and TRP286 of PAS via π-π stacking interaction, near its entrance (Figure 4). The value of –CDOCKER INTERACTION ENERGY was followed by compound 6-1 > compound 7-6 > DL0410. The dibenzofuran of compound 6-1 formed stronger π-π stacking interaction with TYR341 and TRP286, and the carbonyl formed hydrogen bond with TYR72. In addition, hydrogen bond interaction of compound 7-6 made it high inhibition for AChE. […] There existed more hydrogen bonds for compound 7-6, and a highly electronegative fluorine atom caused its strong interaction with GLY116. Therefore, the fluorine atom substitution and the structure of dibenzofuran made compounds 6-1 and 7-6 different from DL0410. Compound 7-6 formed more hydrogen bonds with AChE and BuChE. The structure of dibenzofuran caused the extension direction of compound 6-1 to change, which was more conducive to forming electrostatic attractive interactions. In silico results were consistent with the kinetics studies of AChE and BuChE. […] The inhibition kinetic data were analyzed by Lineweaver-Burk and Dixon plots. The Lineweaver-Burk plot provides a useful means of distinguishing among competitive inhibition, non-competitive inhibition, and mixed inhibition, whereas the merit of the Dixon plot is that one can expediently determine Ki from the kinetic data. […] The results of the kinetics studies also validated that the three compounds were, indeed, capable of binding to CAS and PAS of AChE/BuChE. The PAS site could […] their catalytic efficiency, which led to high inhibitory effects.
(§2) Figure 6 The Lineweaver-Burk plots of DL0410, compound 6-1 and compound 7-6 on AChE inhibitory activity (A–C). The Lineweaver-Burk plots of DL0410, compound 6-1 and compound 7-6 on BuChE inhibitory activity (D–F). Kinetic analysis of AChE and BuChE was performed by using three effective concentrations of DL0410, compound 6-1 and compound 7-6 (0.1, 0.3, 1 μM for AChE, and 0.3, 1, 3 μM for BuChE) with the incubation of five different substrate concentrations (1.25, 2.5, 5, 10, 20 mM for AChE, and 2, 4, 8, 16, 32 mM for BuChE). […] (n = 3; a = mM^−1; b = min/ΔA).
(§3) Figure 7 Ki values were determined by Dixon plots. […] Figure D–F presented the Dixon plots of DL0410, compound 6-1 and compound 7-6 on BuChE inhibitory activity, respectively. […] (n = 3; b = min/ΔA).
(§4) It is important to determinate the type of inhibition in an effort to understand the mechanism of inhibition and the binding sites of the inhibitor sites. […]

Assay [4] deals with APPsw-SY5Y cells. The settings on record: Akt/JNK signaling pathway; cited from earlier work.
Assay [5] concerns the target T2, BuChE (Homo sapiens, UniProt P06276).
T2 construct: BuChE was obtained from human plasma (purchased from Beijing Red Cross Blood Center China); tissue Beijing Red Cross Blood Center China; host or cells: human plasma, diluted 200-fold with 0.05 M PBS
Description: BuChE kinetic study (Lineweaver-Burk and Dixon plots). The format is biochemical. The following applies: for Ki: Dixon plot, inhibitor 0.3, 1, 3 μM, five substrate concentrations, n = 3; for type of inhibition of BuChE: Lineweaver-Burk plot. On the procedure:
as §1, §2, §3, §4

Assay [6] has as its target T1, AChE. Description: In vitro AChE inhibitory assay (Ellman's method). The format is biochemical. The following applies: AChE from SD rat brain homogenate; ASCh substrate; 60 min, 37 °C; read-out: IC50(μM) AChE. On the procedure: The AChE inhibitory activity of DL0410 derivatives was assessed by determining the hydrolysis product of Acetylthiocholine iodide (ASCh) using the Ellman’s method. 5,5′-Dithiobis (2-nitrobenzoic acid) (DTNB), and the substrate ASCh were purchased from Sigma Aldrich. AChE was derived from the SD rat brains by homogenizing the brain with 20-fold saline solution, and then centrifuged at 800× g for 20 min at 4 °C. To acquire the inhibition of AChE activity, five serial dilutions of samples were measured. A Spectra Max M5 microplate reader (Molecular Devices, Sunnyvale, CA, USA) was utilized for the assay for AChE reaction system with 96-well plates in 0.05 M phosphate-buffered solution (PBS). The reaction system includes 10 μL sample, 20 μL AChE solution, 60 μL 3.75 mM ASCh, and 80 μL 0.25 mg/mL DTNB. It took 60 min at 37 °C for incubation, and the absorbance intensity of AChE reaction system was quantified at 412 nm.
On the technique in general: DTNB colorimetry detects thiols as they appear.

In assay [7] the target is T2, BuChE. As to the kind of experiment: In vitro BuChE inhibitory assay (Ellman-type, human plasma). In kind it is biochemical. The following applies: BuChE from human plasma; BuSCh substrate; 60 min, 37 °C; read-out: IC50(μM) BuChE. On the procedure:
BuChE was obtained from human plasma (purchased from Beijing Red Cross Blood Center China). Before utilization, human plasma was diluted 200-fold with 0.05 M PBS. Five serial dilutions of samples are determined to obtain BuChE inhibitory activity. The BuChE reaction system is similar to the assay above, including 10 μL samples, 40 μL diluted plasma sample, 70 μL 7.5 mM S-butyrylthiocholine (BuSCh), and 80 μL 0.25 mg/mL DTNB. After incubation at 37 °C for 60 min, the absorbance intensity of the system was measured at wavelength 412 nm.

These results are taken from article PMC6152156 (Molecules : A Journal of Synthetic Chemistry and Natural …, 2017).

Molecules are shown by their SMILES.

T2 sequence (P06276 29-602): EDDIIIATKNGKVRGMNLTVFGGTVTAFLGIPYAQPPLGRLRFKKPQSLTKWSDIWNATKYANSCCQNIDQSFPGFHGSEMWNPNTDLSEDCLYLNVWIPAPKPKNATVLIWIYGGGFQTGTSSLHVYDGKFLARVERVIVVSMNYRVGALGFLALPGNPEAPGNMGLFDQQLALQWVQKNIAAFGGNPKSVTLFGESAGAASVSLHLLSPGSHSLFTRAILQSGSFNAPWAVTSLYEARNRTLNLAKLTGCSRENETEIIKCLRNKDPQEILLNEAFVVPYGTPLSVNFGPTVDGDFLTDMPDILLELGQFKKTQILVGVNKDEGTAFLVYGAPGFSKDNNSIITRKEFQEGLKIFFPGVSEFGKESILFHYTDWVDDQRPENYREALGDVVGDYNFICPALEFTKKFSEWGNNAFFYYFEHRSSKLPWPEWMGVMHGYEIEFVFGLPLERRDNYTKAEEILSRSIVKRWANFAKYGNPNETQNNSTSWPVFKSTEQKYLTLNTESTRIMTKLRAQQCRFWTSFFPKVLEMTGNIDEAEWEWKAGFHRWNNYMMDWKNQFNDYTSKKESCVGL
T1 sequence (P37136 32-614): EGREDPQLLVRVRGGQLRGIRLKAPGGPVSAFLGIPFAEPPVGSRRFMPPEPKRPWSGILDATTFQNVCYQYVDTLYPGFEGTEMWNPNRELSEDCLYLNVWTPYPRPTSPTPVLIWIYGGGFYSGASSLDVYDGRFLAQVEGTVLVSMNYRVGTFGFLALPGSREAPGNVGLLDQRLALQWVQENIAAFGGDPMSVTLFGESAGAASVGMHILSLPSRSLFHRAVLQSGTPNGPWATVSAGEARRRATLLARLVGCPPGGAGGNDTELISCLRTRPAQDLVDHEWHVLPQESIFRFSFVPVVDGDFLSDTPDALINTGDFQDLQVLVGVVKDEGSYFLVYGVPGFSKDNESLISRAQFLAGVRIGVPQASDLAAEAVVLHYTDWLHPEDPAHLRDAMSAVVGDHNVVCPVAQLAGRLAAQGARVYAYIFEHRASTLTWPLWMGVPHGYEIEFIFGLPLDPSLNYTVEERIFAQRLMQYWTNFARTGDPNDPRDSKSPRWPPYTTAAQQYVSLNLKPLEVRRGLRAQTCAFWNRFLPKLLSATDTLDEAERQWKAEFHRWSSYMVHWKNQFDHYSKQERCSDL

`O=C(CCN1CCCCC1)c1ccc(-c2ccc(C(=O)CCN3CCCCC3)cc2)cc1` [Compound 1-1]: the “Aβ deposits in cerebral cortices” value in assay [1] is “reduced Aβ deposits in cerebral cortices”. For the same molecule, the “learning and memory dysfunction” value in assay [2] was “improved learning and memory dysfunction”. In assay [3], the affinity, expressed as Ki, was 1650 ± 140 nM and the “type of inhibition of AChE” value is “mixed-type”. Also, the neuronal protection result in assay [4] is given as “exerted neuronal protection”. For the same molecule, in assay [5], the Ki (usually the dissociation constant of the complex between target and ligand, obtained from inhibition or displacement) was 1810 ± 80 nM; the “type of inhibition of BuChE” value is “mixed-type”.
For the molecule `O=C(CCN1CCCCC1)c1ccc2oc3ccc(C(=O)CCN4CCCCC4)cc3c2c1` [Compound 6-1], the IC50 (commonly the concentration needed to halve the response being measured) in assay [6] was 0.06 µM. Moreover, in assay [3], the Ki turned out to be 420 ± 40 nM and the “type of inhibition of AChE” value is on record as “mixed-type”. Also, in assay [5], the Ki was determined as 740 ± 160 nM and the “type of inhibition of BuChE” value is listed as “mixed-type”. In addition, in assay [7], the IC50 is 0.61 µM.
For `O=C(CCN1CCCCC1)c1ccc(-c2ccc(C(=O)CCN3CCCCC3)cc2F)cc1` [Compound 7-6], the IC50 in assay [6] worked out at 0.03 µM. Moreover, in assay [3], the Ki stood at 550 ± 200 nM and the “type of inhibition of AChE” value was “mixed-type”. Besides, in assay [5], the affinity, expressed as Ki, was 1630 ± 180 nM and the “type of inhibition of BuChE” value is listed as “mixed-type”. Moreover, the IC50 in assay [7] is 0.44 µM.
